Experimental data as given in ChEMBL document CHEMBL1275392, “Assessment of chemoselective neoglycosylation methods using chlorambucil as a model” (2010).

Experiments:
Assay type in all cases: functional
[1] = tested on: SF-268; test: Growth inhibition of human SF268 cells after 7 days by celltiter-glo assay; conditions: SF-268, 168 h
[2] = tested on: OVCAR-4; test: Growth inhibition of human OVCAR4 cells after 7 days by celltiter-glo assay; conditions: OVCAR-4, 168 h
[3] = tested on: MCF7; test: Growth inhibition of human MCF7 cells at 10 uM after 7 days by celltiter-glo assay; conditions: MCF7, 168 h, read-out: GI
[4] = tested on: T47D; test: Growth inhibition of human T47D cells after 7 days by celltiter-glo assay; conditions: 168 h
[5] = tested on: NCI-H460; test: Growth inhibition of human NCI-H460 cells after 7 days by celltiter-glo assay; conditions: NCI-H460, 168 h
[6] = tested on: OVCAR-3; test: Growth inhibition of human OVCAR-3 cells after 7 days by celltiter-glo assay; conditions: OVCAR-3, 168 h
[7] = tested on: SF-539; test: Growth inhibition of human SF539 cells after 7 days by celltiter-glo assay; conditions: SF-539, 168 h
[8] = tested on: TK-10; test: Growth inhibition of human TK10 cells after 7 days by celltiter-glo assay; conditions: TK-10, 168 h
[9] = Ratio of compound GI50 to chlorambucil GI50 for human H1299 cells
[10] = tested on: SK-MEL-5; test: Growth inhibition of human SK-MEL-5 cells after 7 days by celltiter-glo assay; conditions: SK-MEL-5, 168 h
[11] = tested on: NCI-H522; test: Growth inhibition of human NCI-H522 cells at 10 uM after 7 days by celltiter-glo assay; conditions: NCI-H522, 168 h, read-out: GI
[12] = tested on: A498; test: Growth inhibition of human A498 cells at 10 uM after 7 days by celltiter-glo assay; conditions: A498, 168 h, read-out: GI
[13] = tested on: A498; test: Growth inhibition of human A498 cells after 7 days by celltiter-glo assay; conditions: A498, 168 h
[14] = tested on: HL-60(TB); test: Growth inhibition of human HL-60(TB) cells at 10 uM after 7 days by celltiter-glo assay; conditions: HL-60, 168 h, read-out: GI
[15] = tested on: ACHN; test: Growth inhibition of human ACHN cells after 7 days by celltiter-glo assay; conditions: 168 h
[16] = tested on: U-251; test: Growth inhibition of human U251 cells after 7 days by celltiter-glo assay; conditions: U-251, 168 h
[17] = tested on: UO-31; test: Growth inhibition of human UO31 cells at 10 uM after 7 days by celltiter-glo assay; conditions: UO-31, 168 h, read-out: GI
[18] = tested on: NCI-H322M; test: Growth inhibition of human NCI-H322M cells after 7 days by celltiter-glo assay; conditions: 168 h
[19] = tested on: MDA-MB-231; test: Growth inhibition of human MDA-MB-231 cells after 7 days by celltiter-glo assay; conditions: MDA-MB-231, 168 h
[20] = tested on: SR; test: Growth inhibition of human SR cells after 7 days by celltiter-glo assay; conditions: 168 h
[21] = tested on: HCT-15; test: Growth inhibition of human HCT15 cells after 7 days by celltiter-glo assay; conditions: HCT-15, 168 h
[22] = tested on: NCI-H460; test: Growth inhibition of human NCI-H460 cells at 10 uM after 7 days by celltiter-glo assay; conditions: NCI-H460, 168 h, read-out: GI
[23] = tested on: SK-OV-3; test: Growth inhibition of human SKOV3 cells at 10 uM after 7 days by celltiter-glo assay; conditions: SK-OV-3, 168 h, read-out: GI
[24] = tested on: HOP-92; test: Growth inhibition of human HOP92 cells at 10 uM after 7 days by celltiter-glo assay; conditions: HOP-92, 168 h, read-out: GI
[25] = tested on: SN12C; test: Growth inhibition of human SN12C cells after 7 days by celltiter-glo assay; conditions: 168 h
[26] = tested on: Malme-3M; test: Growth inhibition of human MALME-3M cells at 10 uM after 7 days by celltiter-glo assay; conditions: 168 h, read-out: GI
[27] = tested on: NCI-H23; test: Growth inhibition of human NCI-H23 cells after 7 days by celltiter-glo assay; conditions: NCI-H23, 168 h
[28] = tested on: SNB-75; test: Growth inhibition of human SNB75 cells at 10 uM after 7 days by celltiter-glo assay; conditions: SNB-75, 168 h, read-out: GI
[29] = Growth inhibition of human Hs 578T cells at 10 uM after 7 days by celltiter-glo assay; conditions: 168 h, read-out: GI
[30] = tested on: PC-3; test: Growth inhibition of human PC3 cells at 10 uM after 7 days by celltiter-glo assay; conditions: PC-3, 168 h, read-out: GI
[31] = tested on: NCI/ADR-RES; test: Growth inhibition of human NCI/ADR-RES cells at 10 uM after 7 days by celltiter-glo assay; conditions: 168 h, read-out: GI
[32] = tested on: SF-268; test: Growth inhibition of human SF268 cells at 10 uM after 7 days by celltiter-glo assay; conditions: SF-268, 168 h, read-out: GI
[33] = tested on: SK-MEL-2; test: Growth inhibition of human SK-MEL-2 cells at 10 uM after 7 days by celltiter-glo assay; conditions: SK-MEL-2, 168 h, read-out: GI
[34] = tested on: SF-295; test: Growth inhibition of human SF295 cells after 7 days by celltiter-glo assay; conditions: SF-295, 168 h
[35] = tested on: OVCAR-8; test: Growth inhibition of human OVCAR8 cells at 10 uM after 7 days by celltiter-glo assay; conditions: OVCAR-8, 168 h, read-out: GI
[36] = tested on: HT-29; test: Growth inhibition of human HT-29 cells at 10 uM after 7 days by celltiter-glo assay; conditions: HT-29, 168 h, read-out: GI
[37] = tested on: NCI-H322M; test: Growth inhibition of human NCI-H322M cells at 10 uM after 7 days by celltiter-glo assay; conditions: 168 h, read-out: GI
[38] = tested on: KM12; test: Growth inhibition of human KM12 cells at 10 uM after 7 days by celltiter-glo assay; conditions: KM12, 168 h, read-out: GI
[39] = tested on: UO-31; test: Growth inhibition of human UO31 cells after 7 days by celltiter-glo assay; conditions: UO-31, 168 h
[40] = tested on: CAKI-1; test: Growth inhibition of human Caki1 cells after 7 days by celltiter-glo assay; conditions: CAKI-1, 168 h
[41] = tested on: Malme-3M; test: Growth inhibition of human MALME-3M cells after 7 days by celltiter-glo assay; conditions: 168 h
[42] = tested on: BT-549; test: Growth inhibition of human BT549 cells at 10 uM after 7 days by celltiter-glo assay; conditions: BT-549, 168 h, read-out: GI
[43] = tested on: DU-145; test: Growth inhibition of human DU145 cells at 10 uM after 7 days by celltiter-glo assay; conditions: DU-145, 168 h, read-out: GI
[44] = tested on: NCI/ADR-RES; test: Growth inhibition of human NCI/ADR-RES cells after 7 days by celltiter-glo assay; conditions: 168 h
[45] = tested on: HOP-92; test: Growth inhibition of human HOP92 cells after 7 days by celltiter-glo assay; conditions: HOP-92, 168 h
[46] = tested on: NCI-H226; test: Growth inhibition of human NCI-H226 cells after 7 days by celltiter-glo assay; conditions: NCI-H226, 168 h
[47] = tested on: EKVX; test: Growth inhibition of human EKVX cells at 10 uM after 7 days by celltiter-glo assay; conditions: 168 h, read-out: GI

## CON(CCCc1ccc(N(CCCl)CCCl)cc1)C1OC[C@@H](O)[C@@H]1O (some centres not stated)
[1]
  GI50: 1.5 µM
[2]
  GI50: 29.2 µM
[3]
  inhibition of growth at 10 µM: 32.4%
[4]
  GI50: 6.37 µM
[5]
  GI50: 1.7 µM
[6]
  GI50: 15.3 µM
[7]
  GI50: 8.8 µM
[8]
  GI50: 31.7 µM
[9]
  RatioGI50: 13
[10]
  GI50: 17.7 µM
[11]
  inhibition of growth at 10 µM: 52.4%
[12]
  inhibition of growth at 10 µM: 114%
[13]
  GI50: 21.8 µM
[14]
  inhibition of growth at 10 µM: 68.3%
[15]
  GI50: 4.34 µM
[16]
  GI50: 13.1 µM
[17]
  inhibition of growth at 10 µM: 54.4%
[18]
  GI50: > 100 µM
[19]
  GI50: 1.39 µM
[20]
  GI50: 0.386 µM
[21]
  GI50: 0.53 µM
[22]
  inhibition of growth at 10 µM: 35.8%
[23]
  inhibition of growth at 10 µM: 72.8%
[24]
  inhibition of growth at 10 µM: 58.8%
[25]
  GI50: 7.06 µM
[26]
  inhibition of growth at 10 µM: 69.7%
[27]
  GI50: 7.15 µM
[28]
  inhibition of growth at 10 µM: 66.7%
[29]
  inhibition of growth at 10 µM: 139%
[30]
  inhibition of growth at 10 µM: 72.5%
[31]
  inhibition of growth at 10 µM: 61.5%
[32]
  inhibition of growth at 10 µM: 67.8%
[33]
  inhibition of growth at 10 µM: 100%
[34]
  GI50: 6.47 µM
[35]
  inhibition of growth at 10 µM: 68.1%
[36]
  inhibition of growth at 10 µM: 70.7%
[37]
  inhibition of growth at 10 µM: 99%
[38]
  inhibition of growth at 10 µM: 97.6%
[39]
  GI50: 0.856 µM
[40]
  GI50: 11.5 µM
[41]
  GI50: 20.2 µM
[42]
  inhibition of growth at 10 µM: 38.5%
[43]
  inhibition of growth at 10 µM: 56.8%
[44]
  GI50: 4.61 µM
[45]
  GI50: 4.03 µM
[46]
  GI50: 0.925 µM
[47]
  inhibition of growth at 10 µM: 91.2%
